This is an account of results in article PMC12214830, “The human RIF1-Long isoform interacts with BRCA1 to promote recombinational fork repair under DNA replication stress” (Nature Communications, 2025).

What all share (format): cell-based, human
One assay relates to GFP-RIF1-L-pp1bs foci. The assay is described as follows: co-localisation of RIF1-L-pp1bs foci with BRCA1, γH2AX, RAD51, HeLa cells. Particulars: HU 4 mM 24 h. The procedure: Cells were grown on glass coverslips and treated as desired. Cells were then permeabilized with 0.5% TritonX-100 in PBS for 7 min on ice, and fixed with 4% w/v formaldehyde solution (Sigma HT5012) for 10 min at room temperature (RT). After fixation, coverslips were blocked with 3% BSA in PBS (RT, 1 h), incubated with primary antibodies (RT, 2 h), washed with PBS three times and incubated with secondary antibodies (RT, 1 h). Primary antibodies used for immunofluorescence include anti-γH2A.X (20E3) (Cell Signalling Technology, 9718. 1:500); anti-RPA32/RPA2 (9H8) (Abcam, ab2175. 1:200); anti-RAD51 (H92) (Santa Cruz Biotechnology, sc-8349. 1:100); anti-BrdU (B44) (BD Biosciences, 347580. 1:100); Coverslips were then mounted on glass slides with mounting medium with DAPI. Images were captured by either standard (Zeiss Axio Imager) or confocal (Zeiss LSM-880) microscopy. Fluorescence signal intensities within each nucleus were analysed by CellProfiler software with custom-made pipelines. Co-localisation analyses were performed with custom-made CellProfiler pipelines. Briefly, nuclei were identified and used to create masks. Nuclear RIF1-L-pp1bs, BRCA1, γH2AX, RAD51 foci were identified as objects using Otsu thresholding. ‘Relate objects’ function (defining RIF1-L-pp1bs foci as parent object and foci of other proteins as children object) was used to measure the percentage of RIF1-L-pp1bs foci co-localised with other proteins.

The test system of a further assay is RIF1-L phosphoS2265. The assay is described as follows: Western blot, RIF1-L phosphoS2265, HeLa cells. Conditions: HU 4 mM 24 h. The procedure: Cells were harvested in 10 mM Tris-HCl pH 7.5, 2 mM EDTA buffer and lysed with laemmli sample buffer (Bio-Rad, 1610737, supplemented with 5% β-mercaptoethanol). Samples were heated at 95 °C for 15 min and centrifuged at 13,000 × g for 15 min. Protein concentrations were measured by RC DC Protein Assay (Bio-Rad, 5000122). Equal amounts of total proteins for each sample were separated in Mini-PROTEAN TGX Stain-free Precast Gels (Bio-Rad) by SDS-PAGE. Gels were at this stage imaged with the ChemiDoc Touch Imaging System (Bio-Rad) using the ‘Protein gel – Stain free’ module to obtain stain-free gel images. Proteins on gel were transferred to PVDF membranes (Bio-Rad, 1704274) using the Trans-Blot Turbo Blotting System (Bio-Rad). Membranes were blocked in 3% BSA in TBS-T (1x TBS supplemented with 0.1% Tween-20) at RT for 1 h, followed by incubation with primary antibodies overnight at 4 °C. Membranes were washed with TBS-T and then incubated with secondary antibodies for 1 h at RT. The blots were developed with Clarity ECL reagents (Bio-Rad, 1705060) and imaged with the ChemiDoc Touch Imaging System (Bio-Rad). Primary antibodies used for western blotting include anti-RIF1 (Bethyl Laboratories, A300-568A. 1:5000); anti-RIF1-L-Phospho-S2265 (amsbio, custom. 1:5000); anti-BRCA1 (D-9) (Santa Cruz Biotechnology, sc-6954. 1:1000); anti-BARD1 (Bethyl Laboratories, A300-263A. 1:1000); anti-53BP1 (Novus Biologicals, NB100-94. 1:5000); anti-PP1α (G4) (Santa Cruz Biotechnology, sc-271762. 1:1000); anti-Tubulin (YOL1/34) (Santa Cruz Biotechnology, sc-53030. 1:4000); anti-FLAG (M2) (Sigma-Aldrich, F1804. 1:2000); anti-GFP (Chromotek, 3h9. 1:2000); anti-RFP (Chromotek, 5f8. 1:2000). Uncropped and unprocessed Western Blot images are provided in the Source Data file.
For orientation: A western blot detects proteins with antibodies after separation by electrophoresis.

Another assay has as its system HCT116 cells. The assay is described as follows: colony formation (clonogenic survival) assay, HCT116 cells. The procedure:
For HCT116-derived cells, cells were plated in 6-well plates at 250 cells/well, in triplicate for each drug concentration. Cells were incubated with drugs for 24 h, after which drug-containing medium was replaced with drug-free medium. Seven days later colony counting was performed using a Nikon Eclipse TS100 microscope. For the IR sensitivity test, cells were plated following the same procedure, then irradiated at desired doses and incubated for 7 days before colony counting. Clusters with more than 20 cells were counted as colonies. Mean and standard error of each triplicate was calculated.

SMILES strings stand for the structures.

Turning to `NC(=O)NO` [HU, hydroxyurea], in the assay on GFP-RIF1-L-pp1bs foci, the “RIF1-L-pp1bs foci co-localised with RAD51 and BRCA1” value was ~ 20%; the “RIF1-L-pp1bs foci colocalised with both BRCA1 and γH2AX” value is on record as “Approximately 40%”; the “RIF1-L-pp1bs foci overlapping BRCA1 signal” value is 50–60%; the “RIF1-L-pp1bs foci overlapping γH2AX foci” value is ~ 50%. Also, in the assay with RIF1-L phosphoS2265, the “RIF1-L phosphoS2265 western blot signal” value was “reduced RIF1-L phosphoS^2265 signal”. The “colony survival, RIF1-L cells” value in the assay with HCT116 cells (HCT116 expressing only RIF1-L, versus RIF1-WT) is recorded as “RIF1-L conferred resistance comparable to RIF1-WT”. Besides, the “colony survival, RIF1-S cells” value in the assay with HCT116 cells (HCT116 expressing only RIF1-S, versus RIF1-KO) is listed as “exhibited hypersensitivity to these drugs similar to RIF1-KO cells”.
